Data on three compounds can be found in patent US20240150325A1, “NOVEL COMPOUND AS PROTEIN KINASE INHIBITORS” (LG CHEM, LTD., priority 2021, published 2024).

Assay [1] concerns the target RON (Homo sapiens, UniProt Q04912). The experiment in a line: Evaluation of inhibitory activity to RON. It is filed as biochemical. The source says:
(§1) Experimental Example 1. Evaluation of Inhibitory Activity to RON and MET

For assay [2], the target named is MET (Homo sapiens, UniProt P08581). Nature of the assay: Evaluation of inhibitory activity to MET. It is filed as biochemical.
Sequence of MET (P08581 25-1390): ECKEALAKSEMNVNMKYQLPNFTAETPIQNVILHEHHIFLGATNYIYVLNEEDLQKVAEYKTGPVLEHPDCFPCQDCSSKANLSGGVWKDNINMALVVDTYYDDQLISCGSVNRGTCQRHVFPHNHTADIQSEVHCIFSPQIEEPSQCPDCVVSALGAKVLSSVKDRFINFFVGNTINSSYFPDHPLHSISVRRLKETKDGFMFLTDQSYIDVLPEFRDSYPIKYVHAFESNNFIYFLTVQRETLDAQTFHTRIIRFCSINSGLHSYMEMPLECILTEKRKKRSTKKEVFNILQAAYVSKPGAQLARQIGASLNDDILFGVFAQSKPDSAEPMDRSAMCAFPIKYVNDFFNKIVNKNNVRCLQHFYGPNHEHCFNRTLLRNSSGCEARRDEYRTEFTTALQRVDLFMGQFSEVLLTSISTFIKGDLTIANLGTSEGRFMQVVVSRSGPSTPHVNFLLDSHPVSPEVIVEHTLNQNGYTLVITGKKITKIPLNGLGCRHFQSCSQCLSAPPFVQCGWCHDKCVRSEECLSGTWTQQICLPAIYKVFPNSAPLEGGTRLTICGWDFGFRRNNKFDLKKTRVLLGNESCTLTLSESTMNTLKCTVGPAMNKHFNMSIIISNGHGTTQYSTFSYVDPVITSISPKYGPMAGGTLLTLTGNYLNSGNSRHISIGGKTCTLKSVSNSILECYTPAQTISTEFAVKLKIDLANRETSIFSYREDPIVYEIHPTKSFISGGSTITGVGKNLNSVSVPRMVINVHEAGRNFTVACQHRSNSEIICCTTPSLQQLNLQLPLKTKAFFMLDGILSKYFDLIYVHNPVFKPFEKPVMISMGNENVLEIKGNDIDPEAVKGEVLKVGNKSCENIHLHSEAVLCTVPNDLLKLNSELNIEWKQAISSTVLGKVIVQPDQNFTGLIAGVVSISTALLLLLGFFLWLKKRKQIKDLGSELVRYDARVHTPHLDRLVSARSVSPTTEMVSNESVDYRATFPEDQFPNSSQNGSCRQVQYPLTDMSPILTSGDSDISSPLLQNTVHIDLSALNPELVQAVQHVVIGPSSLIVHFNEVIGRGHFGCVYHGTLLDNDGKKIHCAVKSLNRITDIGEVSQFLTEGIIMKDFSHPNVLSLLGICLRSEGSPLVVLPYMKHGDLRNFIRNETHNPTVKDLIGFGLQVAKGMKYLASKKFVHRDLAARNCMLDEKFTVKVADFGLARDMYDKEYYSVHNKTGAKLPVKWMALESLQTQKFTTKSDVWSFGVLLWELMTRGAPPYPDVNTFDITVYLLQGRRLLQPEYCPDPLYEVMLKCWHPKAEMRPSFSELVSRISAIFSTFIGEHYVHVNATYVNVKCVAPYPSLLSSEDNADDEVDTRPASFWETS
Excerpt: as §1

Sequence of RON (Q04912 25-1400): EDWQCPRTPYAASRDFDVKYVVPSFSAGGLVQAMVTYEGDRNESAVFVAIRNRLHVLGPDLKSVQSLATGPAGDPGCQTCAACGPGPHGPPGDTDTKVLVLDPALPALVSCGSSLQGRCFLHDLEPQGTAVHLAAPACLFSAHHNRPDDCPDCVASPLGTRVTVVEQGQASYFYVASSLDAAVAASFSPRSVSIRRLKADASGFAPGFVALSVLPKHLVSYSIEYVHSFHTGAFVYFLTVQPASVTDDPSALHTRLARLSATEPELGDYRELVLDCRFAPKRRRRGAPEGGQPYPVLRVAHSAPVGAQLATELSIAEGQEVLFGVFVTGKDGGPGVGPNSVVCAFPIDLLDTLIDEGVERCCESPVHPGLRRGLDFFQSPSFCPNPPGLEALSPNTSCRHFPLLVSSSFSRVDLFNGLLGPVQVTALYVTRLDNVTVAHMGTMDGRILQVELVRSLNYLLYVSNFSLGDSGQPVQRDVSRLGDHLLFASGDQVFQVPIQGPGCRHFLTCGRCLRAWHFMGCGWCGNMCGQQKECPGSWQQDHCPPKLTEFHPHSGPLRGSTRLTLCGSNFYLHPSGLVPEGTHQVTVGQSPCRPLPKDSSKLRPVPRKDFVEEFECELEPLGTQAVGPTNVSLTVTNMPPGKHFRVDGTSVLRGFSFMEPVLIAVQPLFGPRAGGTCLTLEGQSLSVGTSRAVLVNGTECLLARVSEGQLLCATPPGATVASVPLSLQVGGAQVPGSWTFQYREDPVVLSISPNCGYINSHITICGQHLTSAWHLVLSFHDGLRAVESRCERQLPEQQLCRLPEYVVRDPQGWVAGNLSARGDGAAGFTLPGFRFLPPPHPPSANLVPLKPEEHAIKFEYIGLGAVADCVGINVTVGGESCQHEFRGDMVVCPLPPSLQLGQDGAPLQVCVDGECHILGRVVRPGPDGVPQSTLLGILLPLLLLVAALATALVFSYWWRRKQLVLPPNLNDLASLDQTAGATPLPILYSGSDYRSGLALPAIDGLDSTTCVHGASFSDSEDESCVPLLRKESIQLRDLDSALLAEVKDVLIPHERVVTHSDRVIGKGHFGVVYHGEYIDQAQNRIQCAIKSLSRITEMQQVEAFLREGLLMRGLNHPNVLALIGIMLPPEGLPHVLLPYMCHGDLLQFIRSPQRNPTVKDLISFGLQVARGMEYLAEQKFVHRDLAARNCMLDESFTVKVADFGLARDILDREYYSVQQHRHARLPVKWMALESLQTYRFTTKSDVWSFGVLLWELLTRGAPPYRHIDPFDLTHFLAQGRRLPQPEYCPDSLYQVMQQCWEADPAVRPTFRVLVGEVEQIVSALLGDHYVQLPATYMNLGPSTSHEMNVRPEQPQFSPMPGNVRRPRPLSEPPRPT

The IC50 is the point on the concentration scale where inhibition reaches its midpoint. Take `CCOc1ccn(-c2ccc(F)cc2)c(=O)c1C(=O)Nc1ccc(-c2ccc(OC)c(-c3cnc(N)nc3)c2)c(F)c1` [Example 17, N-(3′-(2-aminopyrimidin-5-yl)-2-fluoro-4′-methoxy-[1,1′-biphenyl]-4-yl)-4-ethoxy-1-(4-fluorophenyl)-2-oxo-1,2-dihydropyridin-3-carboxamide]: the values for the IC50 in assay [1] and in assay [2] were 2300 nM and above 10000 nM, respectively.
In the same order, the values of `Nc1nccc(-c2cc(-c3ccc(NC(=O)c4ccc(CO)n(-c5ccc(F)cc5)c4=O)cc3F)ccc2O)n1` [Example 10, N-(3′-(2-aminopyrimidin-4-yl)-2-fluoro-4′-hydroxy-[1,1′-biphenyl]-4-yl)-1-(4-fluorophenyl)-6-(hydroxymethyl)-2-oxo-1,2-dihydropyridin-3-carboxamide] are 855 nM and 1710 nM.
Regarding `COc1ccn(-c2ccc(F)cc2)c(=O)c1C(=O)Nc1ccc(Oc2ccc(O)c(-c3ccnc(N)n3)c2)c(F)c1` [Example 42, N-(4-(3-(2-aminopyrimidin-4-yl)-4-hydroxyphenoxy)-3-fluorophenyl)-1-(4-fluorophenyl)-4-methoxy-2-oxo-1,2-dihydropyridin-3-carboxamide], the IC50 in assay [1] turned out to be 355 nM; in assay [2], 53 nM.
